Measurements as given in US20240398781A1, “SPIROCYCLIC CYCLIC MODULATORS OF CHOLESTEROL BIOSYNTHESIS AND THEIR USE FOR PROMOTING REMYELINATION” (GENENTECH, INC., priority 2021, published 2024).
Like-named read-outs stand apart in the source and are kept apart here.

How the values were obtained:
[1] = target: human emopamil binding protein and human 7-dehydrocholesterol reductase co-expressing cells (hEBP-DHCR7 membrane) (Homo sapiens (Human), UniProt Q15125); assay: Radioligand filter binding assay on hEBP-DHCR7 membrane; conditions: [3H]-(S)-6-(2-Methyl-3-(6-(trifluoromethyl)pyridin-3-yl)propyl)-2-thia-6-azaspiro[3.4]octane 2,2-dioxide radioligand, HEK293 membrane co-expressing hEBP and hDHCR7
In short: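 HEK293 cells transiently co-expressing human EBP and DHCR7 supplied whole-cell membranes (10 μg/well), incubated 3 h at 22 °C with [3H]-labelled spiro-octane dioxide ligand (added at 25 nM) and compound (0.06-5000 nM final, 8 doses, n=2). Bound ligand was collected on PEI-treated GF/B filters and counted by scintillation. IC50 was Hill-fitted from % inhibition and reported as Ki.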

EpiSC-derived OPCs = assay: In vitro phenotypic screening of OPCs (MBP staining, high-content imaging); format: cell-based, mouse; conditions: percentage of MBP+ oligodendrocytes, 3 days, 0.5 nM to 1000 nM, read-out: OPC EC50
In short: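 Readout: high-content imaging of MBP immunostaining around DAPI nuclei, giving percent oligodendrocytes, with EC50 from a Levenberg-Marquardt Hill fit. Epiblast stem cell-derived OPCs were plated on laminin at 150,000/cm^2 in growth-factor-free N2B27. They were exposed 3 days to an 8-point series, 0.5-1000 nM final, in two or more independent platings.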

Sequence of human emopamil binding protein and human 7-dehydrocholesterol reductase co-expressing cells (hEBP-DHCR7 membrane) (Q15125 whole entry): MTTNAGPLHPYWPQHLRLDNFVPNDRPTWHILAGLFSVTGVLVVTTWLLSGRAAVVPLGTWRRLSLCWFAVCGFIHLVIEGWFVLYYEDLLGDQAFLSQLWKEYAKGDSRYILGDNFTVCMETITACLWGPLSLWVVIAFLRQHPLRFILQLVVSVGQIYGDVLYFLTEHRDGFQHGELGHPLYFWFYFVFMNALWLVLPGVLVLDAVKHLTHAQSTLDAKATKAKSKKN

Ki [1] | EC50 (EpiSC-derived OPCs; Mus musculus, 72 h) | EC50 (EpiSC-derived OPCs) | SMILES
530 nM | > 1000 nM | – | CC(C)n1cc(C(F)(F)F)nc1[C@H]1CC[C@H](N2CCC3(C2)CS(=O)(=O)C3)C1 (single isomer, unassigned) [20A*]
420 nM | 660 nM | – | CC(C)n1cc(C(F)(F)F)nc1[C@H]1CC[C@@H](N2CCC3(C2)CS(=O)(=O)C3)C1 (single isomer, unassigned) [20C*]
39 nM | 260 nM | – | CC(C)n1cc(C(F)(F)F)nc1[C@@H]1CC[C@H](N2CCC3(C2)CS(=O)(=O)C3)C1 (single isomer, unassigned) [20D*]
14 nM | 9.5 nM | – | O=S1(=O)CC2(CCN([C@@H]3CCCN(c4ccc(C(F)(F)F)cc4)C3)C2)C1 (single isomer, unassigned) [22A*]
58 nM | 110 nM | – | O=S1(=O)CC2(CCN([C@H]3CCCN(c4ccc(C(F)(F)F)cc4)C3)C2)C1 (single isomer, unassigned) [22B*]
25 nM | 18 nM | – | Cn1nc(C(F)(F)F)cc1[C@H]1CC[C@H](N2CCC[C@@]3(CCS(=O)(=O)C3)C2)CC1 (single isomer, unassigned) [26A*]
12 nM | 130 nM | – | Cn1nc(C(F)(F)F)cc1[C@H]1CC[C@H](N2CCC[C@]3(CCS(=O)(=O)C3)C2)CC1 (single isomer, unassigned) [26B*]
260 nM | – | 53 nM | Cn1nc(C(F)(F)F)cc1[C@H]1CC[C@H](N2CC[C@@]3(CCS(=O)(=O)C3)C2)CC1 (single isomer, unassigned) [27A*]
180 nM | – | 130 nM | Cn1nc(C(F)(F)F)cc1[C@H]1CC[C@H](N2CC[C@]3(CCS(=O)(=O)C3)C2)CC1 (single isomer, unassigned) [27B*]
82 nM | 200 nM | – | Cn1nc(C(F)(F)F)cc1[C@H]1CC[C@@H](N2CC[C@]3(CCS(=O)(=O)C3)C2)CC1 (single isomer, unassigned) [38A*]
50 nM | 400 nM | – | Cn1nc(C(F)(F)F)cc1[C@H]1CC[C@@H](N2CC[C@@]3(CCS(=O)(=O)C3)C2)CC1 (single isomer, unassigned) [38B*]
260 nM | – | 50 nM | Cn1nc(C(F)(F)F)cc1[C@H]1CC[C@H](N2CC[C@]3(CCS(=O)(=O)C3)C2)CC1 (single isomer, unassigned) [38C*]
80 nM | – | 200 nM | Cn1nc(C(F)(F)F)cc1[C@H]1CC[C@H](N2CC[C@@]3(CCS(=O)(=O)C3)C2)CC1 (single isomer, unassigned) [38D*]
37.8 nM | 160 nM | – | O=S1(=O)CC2(CCN([C@H]3CC[C@@H](c4ccc(C(F)(F)F)nc4)C3)C2)C1 (single isomer, unassigned) [Compound 11A, (Cis)-6-(3-(6-(Trifluoromethyl)pyridin-3-yl)cyclopentyl)-2-thia-6-azaspiro[3.4]octane 2,2-dioxide]
35.9 nM | 35 nM | – | O=S1(=O)CC2(CCN([C@@H]3CC[C@@H](c4ccc(C(F)(F)F)nc4)C3)C2)C1 (single isomer, unassigned) [Compound 11B, (Trans)-6-(3-(6-(Trifluoromethyl)pyridin-3-yl)cyclopentyl)-2-thia-6-azaspiro[3.4]octane 2,2-dioxide]
20 nM | 49 nM | – | O=S1(=O)CC2(CCN([C@@H]3CO[C@@H](c4ccc(C(F)(F)F)cc4)C3)C2)C1 (stereo in doubt) [19B*, 6-((3S,5R)-5-(4-(trifluoromethyl)phenyl)tetrahydrofuran-3-yl)-2-thia-6-azaspiro[3.4]octane 2,2-dioxide]
18 nM | 270 nM | – | O=S1(=O)CC2(CCN([C@@H]3CO[C@H](c4ccc(C(F)(F)F)cc4)C3)C2)C1 (stereo in doubt) [19C*, 6-((3S,5S)-5-(4-(Trifluoromethyl)phenyl)tetrahydrofuran-3-yl)-2-thia-6-azaspiro[3.4]octane 2,2-dioxide]

The next lines start with the compound.

SMILES | Ki [1] | EC50 (EpiSC-derived OPCs; Mus musculus, 72 h) | EC50 (EpiSC-derived OPCs)
O=S1(=O)CC2(CCN([C@H]3CCN(c4ccc(C(F)(F)F)nc4)C3)C2)C1 (single isomer, unassigned) [9A*] | 58.3 nM | 86 nM | –
O=S1(=O)CC2(CCN([C@@H]3CCN(c4ccc(C(F)(F)F)nc4)C3)C2)C1 (single isomer, unassigned) [9B*] | 245 nM | > 1000 nM | –
CC(C)n1nc(C(F)(F)F)cc1[C@H]1CC[C@H](N2CCC3(C2)CS(=O)(=O)C3)C1 (single isomer, unassigned) [10A*] | 18.7 nM | 18 nM | –
CC(C)n1nc(C(F)(F)F)cc1[C@H]1CC[C@@H](N2CCC3(C2)CS(=O)(=O)C3)C1 (single isomer, unassigned) [10B*] | 21.3 nM | 20 nM | –
CC(C)n1nc(C(F)(F)F)cc1[C@@H]1CC[C@H](N2CCC3(C2)CS(=O)(=O)C3)C1 (single isomer, unassigned) [10C*] | 26.6 nM | 11 nM | –
O=S1(=O)CC2(CCN([C@@H]3CC[C@H](c4ccc(C(F)(F)F)nc4)C3)C2)C1 (single isomer, unassigned) [11C*] | 35 nM | 24 nM | –
O=S1(=O)CC2(CCN(C3CC[C@H](c4ccc(C(F)(F)F)nc4)C3)C2)C1 (single isomer, unassigned) [11D*] | 40 nM | 280 nM | –
CC(C)n1nc(-c2cncc(C(F)(F)F)c2)cc1[C@H]1CC[C@@H](N2CCC3(C2)CS(=O)(=O)C3)C1 (single isomer, unassigned) [13A*] | 6.9 nM | 1.3 nM | –
CC(C)n1nc(-c2cncc(C(F)(F)F)c2)cc1[C@@H]1CC[C@H](N2CCC3(C2)CS(=O)(=O)C3)C1 (single isomer, unassigned) [13B*] | 15 nM | 1.3 nM | –
CC(C)n1nc(-c2cncc(C(F)(F)F)c2)cc1[C@@H]1CC[C@@H](N2CCC3(C2)CS(=O)(=O)C3)C1 (single isomer, unassigned) [13C*] | 23.5 nM | 21 nM | –
CC(C)n1nc(-c2cncc(C(F)(F)F)c2)cc1[C@H]1CC[C@H](N2CCC3(C2)CS(=O)(=O)C3)C1 (single isomer, unassigned) [13D*] | 19 nM | 2.2 nM | –
CC(C)n1nc(-c2ccc(C(F)(F)F)nc2)nc1[C@H]1CC[C@H](N2CCC3(C2)CS(=O)(=O)C3)C1 (single isomer, unassigned) [17B*] | 36 nM | 22 nM | –
CC(C)n1nc(-c2ccc(C(F)(F)F)nc2)nc1[C@H]1CC[C@@H](N2CCC3(C2)CS(=O)(=O)C3)C1 (single isomer, unassigned) [17D*] | 64 nM | 14 nM | –
CC(C)n1nc(C2CC2)nc1[C@@H]1CC[C@H](N2CCC3(C2)CS(=O)(=O)C3)C1 (single isomer, unassigned) [18A*] | 960 nM | 390 nM | –
CC(C)n1nc(C2CC2)nc1[C@H]1CC[C@H](N2CCC3(C2)CS(=O)(=O)C3)C1 (single isomer, unassigned) [18B*, 6-(3-(3-cyclopropyl-1-isopropyl-1H-1,2,4-triazol-5-yl)cyclopentyl)-2-thia-6-azaspiro[3.4]octane 2,2-dioxide] | 650 nM | 390 nM | –
CC(C)n1nc(C2CC2)nc1[C@@H]1CC[C@@H](N2CCC3(C2)CS(=O)(=O)C3)C1 (single isomer, unassigned) [18C*] | 811 nM | 240 nM | –
CC(C)n1nc(C2CC2)nc1[C@H]1CC[C@@H](N2CCC3(C2)CS(=O)(=O)C3)C1 (single isomer, unassigned) [18D*, 6-(3-(3-cyclopropyl-1-isopropyl-1H-1,2,4-triazol-5-yl)cyclopentyl)-2-thia-6-azaspiro[3.4]octane 2,2-dioxide] | 1180 nM | 430 nM | –
CC(C)n1cc(C(F)(F)F)nc1[C@@H]1CC[C@@H](N2CCC3(C2)CS(=O)(=O)C3)C1 (single isomer, unassigned) [20B*] | 130 nM | 340 nM | –
O=S1(=O)CC2(CCN([C@H]3CO[C@@H](c4ccc(C(F)(F)F)cc4)C3)C2)C1 (stereo in doubt) [19A*, 6-((3R,5R)-5-(4-(Trifluoromethyl)phenyl)tetrahydrofuran-3-yl)-2-thia-6-azaspiro[3.4]octane 2,2-dioxide] | 21 nM | 140 nM | –
